Reference: article PMC3809593 (BioMed Research International, 2013)
Values joined by “and” are separate entries in the source; they are usually repeats but may differ in a detail not shown here. Equal values may be shown once. “Also recorded” adds a separate entry of the source. Ends that are not written are not given here.

Tests used:
[1] = cited from earlier work
Source text: This peptide is water soluble and nonhaemolytic at its effective and amphiphilic antimicrobial concentrations. At small concentrations, it inhibits the growth of numerous species of bacteria and fungi, and it induces osmotic lysis in protozoa ... || According to the product specifications, this peptide is soluble in distilled water with 0.1% TFA. As the solution is meant to be inserted into cell culture medium, we have chosen RPMI as the most suitable medium. This medium also allowed us to maintain an optimum pH (7.2–7.4) as we inserted the peptide solution. The extemporaneous peptide solution was utilized immediately after preparation.

[2] = tested on: M14K (human mesothelioma) tumour cell line; experiment: PE Annexin V / 7-AAD flow cytometry apoptosis assay; type: cell-based; settings: for Q1 (7-AAD+) dead cells / Q2 (7-AAD+ Annexin V+) late apoptotic cells / Q4 (Annexin V+ 7AAD−) early apoptotic cells: 72 h in RPMI, 5000 events/well; for Q1 (7-AAD+) dead cells: negative control 2.1; for Q2 (7-AAD+ Annexin V+) late apoptotic cells: negative control 3.8; for Q4 (Annexin V+ 7AAD−) early apoptotic cells: negative control 4.5
Description: (§1) We analysed the cytotoxicity of the peptide chosen for our study in relation to two adherent tumour cell lines: MDA-MB-231 (breast adenocarcinoma) and M14K (human mesothelioma). These lines were cultivated in the same conditions as those used for the optimization of the number of target cells. The negative control was represented by target cells incubated without peptide. Viability was analysed after 72 h of incubation at 37°C, 5% CO2, by two methods: MTT colorimetric assay [3-(4,5-dimethylthiazol-2-yl)-2,5-diphenyltetrazolium bromide] and flow cytometry using PE Annexin V (BD Pharmingen) and 7-AAD (7-aminoactinomycin D).
(§2) PE Annexin V and 7-AAD (7-Aminoactinomycin D) (BD Pharmingen) Viability Assay. This assay was used to detect and measure the apoptotic process by means of flow cytometry. Apoptosis is characterized by cell morphology changes, nuclear condensation, pyknosis, and also by a series of biochemical events causing mitochondrial membrane and nuclear DNA degradation. Phosphatidylserine, which is normally present in the inner layer of the lipid bilayer of the cell membrane, is exposed at the surface of the cells undergoing various stages of apoptosis. Annexin V has great affinity to phosphatidylserine residue, and 7-AAD was used as vital nuclear DNA stain. 96-well cell culture plates were used in our study. The first (1) and last (12) columns of wells only contained culture medium (RPMI 1640) in order to prevent the edge effect. Columns 2 and 11 of wells only contained peptide-free cell suspension (negative control). Columns 3–10 contained target cells and consecutive peptide dilutions. We worked in triplicate for the two cell lines and all the peptide concentrations we used. After 72 h of incubation at 37°C, 5% CO2, adherent cells were detached by trypsination (3–10 minutes of incubation at 37°C with Eurobio trypsin). The cell suspension was distributed in such a manner that each FACS tube had 1 × 10^5 cells. 3 FACS tubes were assessed; the first FACS tube contained unmarked cells, the second FACS tube contained Annexin V PE, and the third FACS tube contained Annexin V PE/7-AAD. Data collection and interpretation were done on a FACS Canto II flow cytometer using the FACSDiva Software (Becton Dickinson) (Figure 3).

[3] = tested on: M14K (human mesothelioma) tumour cell line; experiment: MTT viability assay (cytostasis %); type: cell-based; settings: 72 h incubation in RPMI, mean of three absorbance readings
Description: (§3) Consecutive peptide dilutions with RPMI 1640 (Sigma Aldrich) were used, whereas the working concentrations were 120 μM, 60 μM, 30 μM, 15 μM, 7.5 μM, 3.5 μM, 1.8 μM, and 0.9 μM in a final volume of 200 μL/well. […] Everything was treated in a sterile fashion.
as §1
(§4) [3-(4,5-Dimethylthiazol-2-yl)-2,5-diphenyltetrazolium Bromide] […] Absorbance was measured at 570 nm against a 620 nm reference wavelength using a Tecan Sunrise plate reader. Relying on the absorbance values read in the cells incubated with the peptide studied (A peptide cells) and depending on the absorbance value read in peptide-free cells (A negative control), we calculated the cytostasis percentage, that is, the percentage of cells affected by apoptosis of the whole number of cells in any of the wells analysed. […]

[4] = tested on: MDA-MB-231 (breast adenocarcinoma) tumour cell line; experiment: PE Annexin V / 7-AAD flow cytometry apoptosis assay; type: cell-based, human; settings: MDA-MB231, 72 h in RPMI, 5000 events/well; for Q1—dead cells (7-AAD+): negative control 1.8; for Q2—late apoptosis cells (7-AAD+ Annexin V+): negative control 3; for Q4—early apoptosis cells (Annexin V+ 7-AAD−): negative control 4.7; for Q3—living cells (7-AAD− Annexin V−): negative control 90.5
Description: as §1, §2
Flow cytometry allowed apoptosis assessment for the MDA-MB-231 cell line incubated with the […]. 5000 events/well were acquired, and the results were compared with the viability of the peptide-free cells (negative control).

[5] = tested on: MDA-MB-231 (breast adenocarcinoma) tumour cell line; experiment: MTT viability assay (cytostasis %); type: cell-based, human; settings: MDA-MB-231, 72 h incubation in RPMI, mean of three absorbance readings
Description: as §3, §1, §4

MCF7 tumour cell line = settings: cited from earlier work
Source text: MDA-MB-231 is an adherent breast adenocarcinoma cell line, one of the three known breast cancer cell lines: MCF-7, MDA-MB-231, and T-47D [18, 19].

[6] = at its effective antimicrobial concentrations; cited from earlier work
Source text: This peptide is water soluble and nonhaemolytic at its effective and amphiphilic antimicrobial concentrations. At small concentrations, it inhibits the growth of numerous species of bacteria and fungi, and it induces osmotic lysis in protozoa ...

For GIGKFLHSAKKFGKAFVGEIMNS [Magainin II], the solubility in water [1] is listed as “water soluble”, the solubility ([1]; distilled water with 0.1% TFA, ref product specifications (SIGMA M7402-1MG)) is listed as “soluble” and the “Q1 (7-AAD+) dead cells” value ([2]; 60 μM peptide) is listed as 0.3%. The “Q2 (7-AAD+ Annexin V+) late apoptotic cells” value ([2]; 60 μM peptide) was 8.6%, the “Q4 (Annexin V+ 7AAD−) early apoptotic cells” value ([2]; 60 μM peptide) was 5.9% and the “Q1 (7-AAD+) dead cells” value ([2]; 120 μM peptide) was 2.8%. For the same sequence, the “Q2 (7-AAD+ Annexin V+) late apoptotic cells” value ([2]; 120 μM peptide) was 47.8%, the “Q4 (Annexin V+ 7AAD−) early apoptotic cells” value ([2]; 120 μM peptide) was 13.5% and the “cell population that underwent apoptosis” value ([2]; 72 h, flow cytometry PE Annexin V/7-AAD, concentration not stated in the sentence (values match 120 μM)) was “over 50%”. The “cytostasis % (MTT test)” value ([3]; 15 μM peptide) was “absent”, the “cytostasis % (MTT test)” value ([3]; 30 μM peptide) was “significantly lower” and the “Q1—dead cells (7-AAD+)” value ([4]; 60 μM peptide) was 0.8%. For the same sequence, the “Q2—late apoptosis cells (7-AAD+ Annexin V+)” value ([4]; 60 μM peptide) was 19.6%, the “Q4—early apoptosis cells (Annexin V+ 7-AAD−)” value ([4]; 60 μM peptide) was 3.4% and the “Q3—living cells (7-AAD− Annexin V−)” value ([4]; 60 μM peptide) was 76.2%. For the same sequence, the “Q1—dead cells (7-AAD+)” value ([4]; 120 μM peptide) was 1.4%, the “Q2—late apoptosis cells (7-AAD+ Annexin V+)” value ([4]; 120 μM peptide) was 47.5% and the “Q4—early apoptosis cells (Annexin V+ 7-AAD−)” value ([4]; 120 μM peptide) was 14.8%. For the same sequence, the “Q3—living cells (7-AAD− Annexin V−)” value ([4]; 120 μM peptide) was 36.3%, the “cytostasis % (MTT test)” value ([5]; 15 μM peptide) was “absent” and the “cytostasis % (MTT test)” value ([5]; 30 μM peptide) was “persisted; also recorded: significantly lower”. For the same sequence, the “concentration with cytotoxic effect” value (MCF7 tumour cell line) was “exceed 200 μg/mL and > 80 μM” and the haemolysis [6] was “nonhaemolytic”.
